This is an account of results in publication PMC11726634, “Probing the Histamine H1 Receptor Binding Site to Explore Ligand Binding Kinetics” (Journal of Medicinal Chemistry, 2024).

Structures can show the parent of a compound that is named as a salt. Where two headings read alike, the source gives them in different places. Some results are limits rather than exact numbers.

Experiment [1] concerns the target T1, human H1R (Homo sapiens, UniProt P35367).
T1 construct: expressed in transfected cells; host or cells: HEK293T cells, transient transfection with pcDEF3, used as cell homogenate
The experiment can be described thus: Competition association binding with [3H]-mepyramine (Motulsky and Mahan model). As to conditions: for KE (kinetic efficiency = RT/N heavy atoms): RT divided by number of heavy atoms; for pKD,calc: calculated from kon and koff of individual experiments. The method, then:
Binding in the presence of mianserin was assumed to be the baseline (i.e., t = 0 min). Binding over time was baseline corrected and then analyzed by nonlinear regression using the Motulsky and Mahan model[25] (eq 5). This model assumes that both the radioligand and the unlabeled ligand bind competitively to the same binding site according to a one-step binding mechanism.

For experiment [2], the target named is T1, human H1R. The experiment is described as follows: [3H]-mepyramine competition binding (radioligand displacement, 4 h) on HEK293T cell homogenates. The settings on record: for pKi: [3H]mepyramine displacement curves after 4 h incubation, HEK293T cell homogenate expressing H1R, 25 °C, mean and SEM, N ≥ 3. How it is done:
Protein content of membrane homogenates was determined using a BCA protein assay. […] Membrane preparation, termination of the binding reaction and quantifying radioactivity as described here, were performed for all binding experiments.Total binding and nonspecific binding (i.e., in the presence of mianserin) was analyzed by nonlinear regression using eqs 1 (nonspecific binding) and 2 (total binding).
These values were converted to Ki values using the Cheng–Prusoff equation.[24]

Setting [3] is: competitive binding of [3H]mepyramine over time, unlabeled ligand at ±10 times Ki, 25 °C, mean and SEM, N ≥ 3.
[4] abbreviates: competitive binding of [3H]mepyramine over time, unlabeled ligand at ±10 times Ki, 25 °C, mean and SEM, N ≥ 3, read-out: koff (converted).
The mark [5] stands for this setting: compared with fragment 1 (RT 2.0 min).

T1 sequence (P35367 whole entry): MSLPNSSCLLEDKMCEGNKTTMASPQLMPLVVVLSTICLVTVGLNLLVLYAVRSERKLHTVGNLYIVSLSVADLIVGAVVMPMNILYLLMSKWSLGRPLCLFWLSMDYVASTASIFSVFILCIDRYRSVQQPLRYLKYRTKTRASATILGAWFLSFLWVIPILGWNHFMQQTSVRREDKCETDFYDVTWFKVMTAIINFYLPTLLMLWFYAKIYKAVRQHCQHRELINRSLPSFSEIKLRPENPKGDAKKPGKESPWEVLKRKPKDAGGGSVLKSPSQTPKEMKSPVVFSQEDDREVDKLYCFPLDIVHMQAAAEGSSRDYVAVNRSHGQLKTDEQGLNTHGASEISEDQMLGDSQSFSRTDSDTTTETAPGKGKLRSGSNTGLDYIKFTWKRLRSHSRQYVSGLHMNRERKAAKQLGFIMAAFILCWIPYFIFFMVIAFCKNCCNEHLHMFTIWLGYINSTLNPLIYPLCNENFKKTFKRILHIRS

Take “2-(3-Benzyl-2-((1-methylpiperidin-4-yl)oxy)phenyl)acetic Acid [3b]”: the “KE (kinetic efficiency = RT/N heavy atoms)” value (from here on “KE”) on human H1R [1] is on record as 0.48. Further, on human H1R [1] (mean and SEM, N ≥ 3), the “pKD,calc” value is 7.4 ± 0.0. Moreover, at human H1R [1] (setting [3]), the koff stood at 0.00138 ± 6.7e-05 s⁻¹ and the on-rate constant (kon) is listed as 2.08 ± 0.10 10^6· M^−1·min^−1. Also, the negative logarithm of the Ki (pKi) on human H1R [2] turned out to be 7.4 ± 0.1.
Take `CN1CCC(Oc2cc(C(=O)O)ccc2Cc2ccccc2)CC1` [2a, 4-Benzyl-3-((1-methylpiperidin-4-yl)oxy)benzoic Acid]: the “KE” value on human H1R [1] is on record as 0.05. Moreover, the “pKD,calc” value on human H1R [1] (mean and SEM, N ≥ 3) is reported as 4.8 ± 0.1. For the same molecule, on human H1R [1] (setting [4]), the koff was 0.0167 s⁻¹. Besides, the kon at human H1R [1] (read-out: kon (converted)) is 1000 M⁻¹ s⁻¹. This molecule also registered a pKi on human H1R [2] of less than 5.
For `CN1CCC(Oc2cc(CC(=O)O)ccc2Cc2ccccc2)CC1` [2b, 2-(4-Benzyl-3-((1-methylpiperidin-4-yl)oxy)phenyl)acetic Acid], in that order: 0.24, 6.8 ± 0.2, 0.00283 s⁻¹, 21700 M⁻¹ s⁻¹ and 6.9 ± 0.1.
In the case of `CN1CCC(Oc2cc(/C=C/C(=O)O)ccc2Cc2ccccc2)CC1` [2c, (E)-3-(4-Benzyl-3-((1-methylpiperidin-4-yl)oxy)phenyl)acrylic Acid], the “KE” value at human H1R [1] is 0.69. For the same molecule, on human H1R [1] (mean and SEM, N ≥ 3), the “pKD,calc” value is 7.0 ± 0.0. Besides, the “increase in RT relative to 1” value on human H1R [1] (setting [5]) is 9 fold. Further, the off-rate (koff) on human H1R [1] (setting [4]) is 0.000917 s⁻¹. For the same molecule, on human H1R [1] (read-out: kon (converted)), the kon was 10300 M⁻¹ s⁻¹. Moreover, at human H1R [2], the negative logarithm of the Ki (pKi) is on record as 6.5 ± 0.1.
As to `CN1CCC(Oc2cc(CO)ccc2Cc2ccccc2)CC1` [2d, (4-Benzyl-3-((1-methylpiperidin-4-yl)oxy)phenyl)methanol Hemifumarate], on human H1R [1], the “increase in RT relative to 1” value was determined as 2 fold and the “KE” value came out at 0.17. The “pKD,calc” value at human H1R [1] (mean and SEM, N ≥ 3) was 8.6 ± 0.0. Also, the “decrease of association rate constant (kon) relative to 1” value at human H1R [1] (compared with 1) is recorded as 2 fold. The off-rate constant (koff) on human H1R [1] (read-out: koff (converted)) is 0.00417 s⁻¹. Besides, at human H1R [1] (read-out: kon (converted)), the kon is 1.63e+06 M⁻¹ s⁻¹. In addition, at human H1R [2], the pKi was found to be 8.4 ± 0.1.
Regarding `COc1ccc(Cc2ccccc2)c(OC2CCN(C)CC2)c1` [2e, 4-(2-Benzyl-5-methoxyphenoxy)-1-methylpiperidine Fumarate], the “KE” value on human H1R [1] is listed as 0.09. Moreover, the “pKD,calc” value on human H1R [1] (mean and SEM, N ≥ 3) is reported as 8.1 ± 0.1. Moreover, at human H1R [1] (read-out: koff (converted)), the koff was 0.00833 s⁻¹. At human H1R [1] (read-out: kon (converted)), the kon was 1e+06 M⁻¹ s⁻¹. On human H1R [2], the pKi came to 7.8 ± 0.1.
On to `CN1CCC(Oc2c(Cc3ccccc3)cccc2C(=O)O)CC1` [3a, 3-Benzyl-2-((1-methylpiperidin-4-yl)oxy)benzoic Acid], for which the “KE” value at human H1R [1] was found to be 0.18. Moreover, at human H1R [1] (mean and SEM, N ≥ 3), the “pKD,calc” value was 6.3 ± 0.0. Besides, on human H1R [1] (setting [4]), the koff is 0.004 s⁻¹. Further, at human H1R [1] (read-out: kon (converted)), the on-rate constant (kon) is 8330 M⁻¹ s⁻¹. Moreover, the pKi at human H1R [2] is reported as 6.2 ± 0.1.
With `CN1CCC(Oc2c(/C=C/C(=O)O)cccc2Cc2ccccc2)CC1` [3c, (E)-3-(3-Benzyl-2-((1-methylpiperidin-4-yl)oxy)phenyl)acrylic Acid], the “KE” value at human H1R [1] came to 0.12. Moreover, at human H1R [1] (mean and SEM, N ≥ 3), the “pKD,calc” value is 6.7 ± 0.0. Moreover, the association rate constant (kon) on human H1R [1] (read-out: kon (converted)) is 26700 M⁻¹ s⁻¹. The same molecule came in with a pKi at human H1R [2] of 6.6 ± 0.1.
As to `CN1CCC(Oc2c(CO)cccc2Cc2ccccc2)CC1` [3d, (3-Benzyl-2-((1-methylpiperidin-4-yl)oxy)phenyl)methanol], the “KE” value at human H1R [1] was found to be 0.06. Also, the “pKD,calc” value on human H1R [1] (mean and SEM, N ≥ 3) was 7.6 ± 0.1. On human H1R [1] (setting [4]), the koff was 0.0122 s⁻¹. Further, the on-rate (kon) at human H1R [1] (read-out: kon (converted)) is 450000 M⁻¹ s⁻¹. Besides, the pKi on human H1R [2] was found to be 7.4 ± 0.0. Besides, the “lower binding affinity relative to 1” value on human H1R [2] (compared with 1) worked out at 10 fold.
For the molecule `O=C(O)CCN1CCC(Oc2ccccc2Cc2ccccc2)CC1` [4a, 3-(4-(2-Benzylphenoxy)piperidin-1-yl)propanoic Acid Hydrochloride], on human H1R [1], the “KE” value is listed as 0.36. The “pKD,calc” value on human H1R [1] (mean and SEM, N ≥ 3) is 7.4 ± 0.0. The koff at human H1R [1] (setting [4]) was 0.00183 s⁻¹. On human H1R [1] (read-out: kon (converted)), the kon is 48300 M⁻¹ s⁻¹. Moreover, the pKi at human H1R [2] stood at 7.5 ± 0.1.
For `O=C(O)CCCN1CCC(Oc2ccccc2Cc2ccccc2)CC1` [4b, 4-(4-(2-Benzylphenoxy)piperidin-1-yl)butanoic Acid Hydrochloride], in that order: 0.38, 7.5 ± 0.0, 0.00167 s⁻¹, 48300 M⁻¹ s⁻¹ and 7.6 ± 0.1.
Consider `O=C(O)CCCCN1CCC(Oc2ccccc2Cc2ccccc2)CC1` [4c, 5-(4-(2-Benzylphenoxy)piperidin-1-yl)pentanoic Acid Hydrochloride], for which the “KE” value at human H1R [1] is on record as 0.85. Besides, the “pKD,calc” value at human H1R [1] (mean and SEM, N ≥ 3) was 7.9 ± 0.1. For the same molecule, the “increase in RT relative to 1” value on human H1R [1] (setting [5]) is on record as more than 10 fold. In addition, the off-rate (koff) on human H1R [1] (setting [4]) is 0.00075 s⁻¹. Further, on human H1R [1] (read-out: kon (converted)), the association rate constant (kon) was 53300 M⁻¹ s⁻¹. For the same molecule, at human H1R [2], the pKi turned out to be 7.8 ± 0.1.
In the case of `O=C(O)CCCCCN1CCC(Oc2ccccc2Cc2ccccc2)CC1` [4d, 6-(4-(2-Benzylphenoxy)piperidin-1-yl)hexanoic Acid Hydrochloride], the “KE” value on human H1R [1] turned out to be 0.61. The “pKD,calc” value at human H1R [1] (mean and SEM, N ≥ 3) is listed as 7.7 ± 0.1. At human H1R [1] (setting [4]), the off-rate constant (koff) is 0.001 s⁻¹. Also, the on-rate constant (kon) at human H1R [1] (read-out: kon (converted)) is 66700 M⁻¹ s⁻¹. The negative-log Ki (pKi) on human H1R [2] turned out to be 7.8 ± 0.0.
Taken in the same sequence, the figures for `O=C(O)CCCCCCN1CCC(Oc2ccccc2Cc2ccccc2)CC1` [4e, 7-(4-(2-Benzylphenoxy)piperidin-1-yl)heptanoic Acid Hydrochloride] were 0.45, 7.5 ± 0.0, 0.00127 s⁻¹, 41700 M⁻¹ s⁻¹ and 7.7 ± 0.2.
As to `O=C(O)CCCCCCCN1CCC(Oc2ccccc2Cc2ccccc2)CC1` [4f, 8-(4-(2-Benzylphenoxy)piperidin-1-yl)octanoic Acid Hydrochloride], the “KE” value on human H1R [1] came to 0.50. Besides, the “pKD,calc” value at human H1R [1] (mean and SEM, N ≥ 3) is on record as 7.5 ± 0.0. Moreover, the koff at human H1R [1] (setting [4]) was 0.00115 s⁻¹. The kon at human H1R [1] (read-out: kon (converted)) was 39500 M⁻¹ s⁻¹. For the same molecule, the negative-log Ki (pKi) at human H1R [2] worked out at 7.6 ± 0.1.
Take `CN(C)CC/C=C1/c2ccccc2COc2ccc(CC(=O)O)cc21` [Olopatadine, olopatadine, reference compound]: at human H1R [1], the “increase in RT compared to first-generation analog” value turned out to be 7 fold.
Turning to `c1ccc(Cc2ccccc2OC2CCN(CCCCc3nnn[nH]3)CC2)cc1` [compound 27, 1-(4-(1H-Tetrazol-5-yl)butyl)-4-(2-benzylphenoxy)piperidine], on human H1R [1], the “KE” value worked out at 1.66. The “pKD,calc” value on human H1R [1] (mean and SEM, N ≥ 3) was 8.2 ± 0.02. For the same molecule, the koff on human H1R [1] (setting [4]) was 0.00035 s⁻¹. Also, the kon at human H1R [1] (read-out: kon (converted)) is 61700 M⁻¹ s⁻¹. Also, the negative logarithm of the Ki (pKi) at human H1R [2] stood at 8.1 ± 0.1.
